Patent US8318731B2, “Pyrrolopyrimidines” (Janssen Pharmaceutica NV, priority 2007, dated 2012)

Tests used:
[1] = molecular target: T1, PLK4 (h) (Homo sapiens, UniProt O00444); assay: PLK-4 human kinase scintillation proximity assay (SPA); type: biochemical; conditions: 1 μM ATP, 60 minutes at r.t., read-out: PLK4 pIC50 (converted)
T1 sequence (O00444 1-970): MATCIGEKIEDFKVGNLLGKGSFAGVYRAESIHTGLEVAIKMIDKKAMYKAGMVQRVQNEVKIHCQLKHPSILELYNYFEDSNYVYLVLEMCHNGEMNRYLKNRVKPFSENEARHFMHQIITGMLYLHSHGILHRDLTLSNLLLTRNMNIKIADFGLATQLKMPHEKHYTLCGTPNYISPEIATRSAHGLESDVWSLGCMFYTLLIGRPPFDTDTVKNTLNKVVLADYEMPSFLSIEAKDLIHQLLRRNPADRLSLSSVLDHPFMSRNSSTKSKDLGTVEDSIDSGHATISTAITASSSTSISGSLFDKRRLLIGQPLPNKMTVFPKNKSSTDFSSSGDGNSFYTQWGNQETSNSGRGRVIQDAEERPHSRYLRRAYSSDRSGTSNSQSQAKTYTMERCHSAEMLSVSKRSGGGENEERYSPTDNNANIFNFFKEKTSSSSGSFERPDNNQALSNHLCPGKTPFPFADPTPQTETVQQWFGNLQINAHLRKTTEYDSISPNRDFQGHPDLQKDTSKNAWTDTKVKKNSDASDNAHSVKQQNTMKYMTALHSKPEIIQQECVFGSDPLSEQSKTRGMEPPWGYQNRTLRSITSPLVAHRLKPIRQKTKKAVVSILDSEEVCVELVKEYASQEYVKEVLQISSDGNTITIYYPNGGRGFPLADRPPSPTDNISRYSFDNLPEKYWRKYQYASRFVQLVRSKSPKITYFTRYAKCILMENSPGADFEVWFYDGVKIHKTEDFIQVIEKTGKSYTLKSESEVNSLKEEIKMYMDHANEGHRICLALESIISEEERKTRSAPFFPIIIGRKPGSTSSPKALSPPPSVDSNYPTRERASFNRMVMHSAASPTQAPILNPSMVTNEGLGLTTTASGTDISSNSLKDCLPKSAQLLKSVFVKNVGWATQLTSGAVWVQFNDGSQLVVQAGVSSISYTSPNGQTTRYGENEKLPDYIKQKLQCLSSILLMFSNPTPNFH
Outline: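 Human PLK4 (19 μg/ml) reacted with 10 μM biotinylated peptide, 1 μM ATP plus 2 nM [γ-33P]ATP in HEPES pH 8.0 with MgCl2, NaCl, NaF and DTT for 60 min at r.t. After an EDTA stop, phosphorylated substrate was captured on streptavidin PVT SPA beads and scintillation imaged.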

[2] = system: HCT-116; assay: Cellular proliferation assay (Alamar blue), HCT-116; type: cell-based; conditions: Homo sapiens; HCT-116 cells; 10% FCS; 72 h with compound; Alamar blue 4 h; read-out: pIC50 HCT-116 (converted)
Outline: (§1)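 10% FCS, 37° C., 5% CO2; seed, 24 h no compound; 72 h compound; Alamar blue (resazurin 9 μg/ml, ferro-/ferricyanide 90 μM each) 4 h HCT-116, 6 h U87-MG, 24 h PC3/A2780; fluorescence 544/590 nm; normalised to controls.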

[3] = system: H1299; assay: Cellular proliferation assay (Alamar blue), H1299; type: cell-based; conditions: Homo sapiens, NCI-H1299, H1299 cells; 10% FCS; 72 h with compound; Alamar blue 4 h; read-out: pIC50 H1299 (converted)
Outline: (§2)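 Viable cell number is determined by Alamar blue conversion after cells are treated with compound for 72 hours, following 24 hours of growth without compound in 10% FCS. The effect is calculated against control cells.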

[4] = system: U87-MG; assay: Cellular proliferation assay (Alamar blue), U87-MG; type: cell-based; conditions: Homo sapiens, U-87 MG; U87-MG cells; 10% FCS; 72 h with compound; Alamar blue 6 h; read-out: pIC50 U87MG (converted)
Procedure: Cellular proliferation of these compounds was tested on a panel of different cell lines in the presence of 10% FCS serum (37° C. and 5% (v/v) CO2). In a first step these cells were seeded and incubated for 24 hours in the absence of compound. In the second step the cells were incubated for 72 hours with the compounds to be tested for 72 hours. The viable cell number was finally assessed in a standard Alamar blue cell viability assay.
The viable cell number was assessed by incubation for either 4 h (HCT-116, H1299) 6 h (U87-MG) or 24 h (A2780, PC3, MDA-MB-231) with Alamar blue (Resazurin 9 μg/ml, K-Ferrocyanide 90 μM, K-Ferricyanide 90 μM) and the converted fluorescent product was quantified on a fluorescent plate readed (544 nm/590 nm). Effect of the compounds is calculated as of on control cells.

[5] = system: PC3; assay: Cellular proliferation assay (Alamar blue), PC3; type: cell-based; conditions: Homo sapiens, PC-3, PC-3 cells; 10% FCS; 72 h with compound; Alamar blue 24 h; read-out: pIC50 PC-3 (converted)
Outline: as §1

[6] = system: A2780; assay: Cellular proliferation assay (Alamar blue), A2780; type: cell-based; conditions: Homo sapiens, A2780, A2780 cells; 10% FCS; 72 h with compound; Alamar blue 24 h; read-out: pIC50 A2780 (converted)
Outline: as §1

[7] = system: MDA-MB-231; assay: Cellular proliferation assay (Alamar blue), MDA-MB-231; type: cell-based; conditions: Homo sapiens, MDA-MB-231, MDA-MB-231 cells; 10% FCS; 72 h with compound; Alamar blue 24 h; read-out: pIC50 MDA/MB231 (converted)
Outline: as §2

## COc1ccc2cc1CCC(=O)N(C)CCN(C)Cc1c[nH]c3ncnc(c13)N2 [Compound 46]
[1]
  IC50: 1 µM
[2]
  IC50: > 10 µM
[3]
  IC50: > 10 µM
[4]
  IC50: > 10 µM
[5]
  IC50: > 10 µM
[6]
  IC50: > 10 µM
[7]
  IC50: > 10 µM

## COc1cc2cc(c1OC)OCCCCC(=O)N1CCN(CC1)Cc1c[nH]c3ncnc(c13)N2 [Compound 111]
[1]
  IC50: > 10 µM
[2]
  IC50: > 10 µM
[3]
  IC50: > 10 µM
[4]
  IC50: > 10 µM
[5]
  IC50: > 10 µM
[6]
  IC50: > 10 µM
[7]
  IC50: > 10 µM

## CN1CCCN(C)C(=O)COc2cc(ccc2N2CCOCC2)Nc2ncnc3[nH]cc(c23)C1 [Compound 85]
[1]
  IC50: 0.158 µM
[2]
  IC50: 2 µM
[3]
  IC50: 2 µM
[4]
  IC50: 2 µM
[5]
  IC50: 5.01 µM
[6]
  IC50: 1.58 µM
[7]
  IC50: 7.94 µM

## CN1CCCN(C)C(=O)CCc2cc(ccc2N2CCOCC2)Nc2ncnc3[nH]cc(c23)C1 [Compound 56]
[1]
  IC50: 5.01 µM
[2]
  IC50: > 10 µM
[3]
  IC50: > 10 µM
[4]
  IC50: > 10 µM
[5]
  IC50: > 10 µM
[6]
  IC50: > 10 µM
[7]
  IC50: > 10 µM

## COc1cc2cc(c1OC)OCCCC(=O)N1CCN(CC1)Cc1c[nH]c3ncnc(c13)N2 [Compound 112]
[1]
  IC50: > 10 µM
[2]
  IC50: > 10 µM
[3]
  IC50: > 10 µM
[4]
  IC50: > 10 µM
[5]
  IC50: > 10 µM
[6]
  IC50: > 10 µM
[7]
  IC50: > 10 µM

## O=C1CCCOc2cc(ccc2Cl)Nc2ncnc3[nH]cc(c23)CN2CCN1CC2 [Compound 106]
[1]
  IC50: 6.31 µM
[2]
  IC50: > 10 µM
[3]
  IC50: > 10 µM
[4]
  IC50: > 10 µM
[5]
  IC50: > 10 µM
[6]
  IC50: > 10 µM
[7]
  IC50: > 10 µM

## CN1CCCN(C)C(=O)COc2cc(ccc2NC(=O)NCC2CC2)Nc2ncnc3[nH]cc(c23)C1 [Compound 127]
[1]
  IC50: 0.0501 µM
[2]
  IC50: > 10 µM
[3]
  IC50: > 10 µM
[4]
  IC50: > 10 µM
[5]
  IC50: > 10 µM
[6]
  IC50: 5.01 µM
[7]
  IC50: > 10 µM

## CCOCCCOc1ccc2cc1OCC(=O)N(C)CCCN(C)Cc1c[nH]c3ncnc(c13)N2 [Compound 130]
[1]
  IC50: 0.0398 µM
[2]
  IC50: 0.631 µM
[3]
  IC50: 1.58 µM
[4]
  IC50: 2 µM
[5]
  IC50: 5.01 µM
[6]
  IC50: 0.501 µM
[7]
  IC50: 3.16 µM

## CN1CCN(c2ccc3cc2OCC(=O)N(C)CCCN(C)Cc2c[nH]c4ncnc(c24)N3)CC1 [Compound 84]
[1]
  IC50: 0.2 µM
[2]
  IC50: 1 µM
[3]
  IC50: 3.16 µM
[4]
  IC50: 1.26 µM
[5]
  IC50: 2.51 µM
[6]
  IC50: 0.501 µM
[7]
  IC50: 3.98 µM

## CN1CC(=O)NCCOc2cccc(c2)Nc2ncnc3[nH]cc(c23)C1 [Compound 23]
[1]
  IC50: 1.58 µM
[2]
  IC50: 1.26 µM
[3]
  IC50: 1 µM
[4]
  IC50: 1.58 µM
[5]
  IC50: 3.16 µM
[6]
  IC50: 1 µM
[7]
  IC50: 5.01 µM

## COc1cc2cc(c1OC)CN(C(C)C)CC(=O)N(C)CCCc1c[nH]c3ncnc(c13)N2 [Compound 123]
[1]
  IC50: > 10 µM
[2]
  IC50: > 10 µM
[3]
  IC50: > 10 µM
[4]
  IC50: > 10 µM
[5]
  IC50: > 10 µM
[6]
  IC50: > 10 µM
[7]
  IC50: > 10 µM

## CCN(CCOC)CCOc1ccc2cc1OCC(=O)N(C)CCCN(C)Cc1c[nH]c3ncnc(c13)N2 [Compound 77]
[1]
  IC50: 0.0631 µM
[2]
  IC50: 3.16 µM
[3]
  IC50: 7.94 µM
[4]
  IC50: 3.16 µM
[5]
  IC50: 3.16 µM
[6]
  IC50: 2.51 µM
[7]
  IC50: 5.01 µM

## COc1cc2cc(c1OC)CCC(=O)N(C)CCN(C)Cc1c[nH]c3ncnc(c13)N2 [Compound 47]
[1]
  IC50: 6.31 µM
[2]
  IC50: > 10 µM
[3]
  IC50: > 10 µM
[4]
  IC50: > 10 µM
[5]
  IC50: > 10 µM
[6]
  IC50: > 10 µM
[7]
  IC50: > 10 µM

## COc1ccc2cc1CN(C(C)C)CC(=O)N(C)CCCc1c[nH]c3ncnc(c13)N2 [Compound 37]
[1]
  IC50: > 10 µM
[2]
  IC50: > 10 µM
[3]
  IC50: > 10 µM
[4]
  IC50: > 10 µM
[5]
  IC50: > 10 µM
[6]
  IC50: > 10 µM
[7]
  IC50: > 10 µM
